In data set [1] the target is recombinant HIV-1 protease (UniProt P04585). Briefly: Inhibition of recombinant HIV-1 protease. It is filed as biochemical. Conditions: 70% loaded; cell-free assay; read-out: IC50 against recombinant HIV protease.
Description: HIV-1 protease inhibition screening was conducted as per manufacturers' instructions (Roche Diagnostics GmbH; Germany). […] The entire sample (60 μl) was then transferred into microplate modules and incubated for a further 60 minutes at 37° C. The samples were then aspirated and washed ×5 with 250 μl of wash buffer. After the final aspiration, 200 μl of reconstituted anti-digoxigenin-peroxidase (Anti-DIG-POD) polyclonal antibody (200 mU/ml final concentration) was added to all wells and the plate returned to the incubator for a further 60 minutes at 37° C. The samples were aspirated and washed ×5 with wash buffer. Finally, after the final wash buffer was aspirated, 200 μl of ABTS substrate was added to each well and the plate incubated at room temperature for 15 minutes. Absorbance was then measured at 405 nm using FLUOstar Omega microplate reader (BMG Labtech, Uk).
Data set [2] can be described thus: ATP cell viability assay (CellTiter-Glo) cytotoxicity. In kind it is cell-based. Conditions: human, 70% lopinavir loaded, 24 hours incubation. From the text:
(§1) HepG2 (hepatic) and Caco-2 (intestinal) cells were purchased from American Type Tissue Culture (ATCC; USA) and maintained in Dulbecco's modified eagle's medium (DMEM; Sigma; Dorest, Uk) supplemented with 10% fetal bovine serum (FBS; Bio-Whittaker, Berkshire, Uk) for HepG2 and 15% FBS for Caco-2. CEM (lymphocyte) and THP-1 (monocyte) cells were purchased from European Collection of Cell Culture (ECACC; Porton Down, Uk) and grown in RPMI-1640 (Sigma; Dorest, Uk) supplemented with 10% FBS. All cell lines were incubated at 37° C. and 5% CO2 and for adherent cells (HepG2 and Caco-2) were routinely sub-cultured every 4 days when 95% confluent. Suspension cells (CEM and THP-1) were routinely sub-cultured when a density of 1×10^6 cells/ml was achieved. Cell count and viability was determined by Trypan Blue exclusion assay.
HepG2, Caco-2, THP-1, CEM and A-THP-1 cells were separately seeded at a density of 2.5×10^4/100 μl in their appropriate media into each well of a 96 well plate (Nunclon™, Denmark) and incubated for 24 hours at 37° C. and 5% CO2. Media was then aspirated and replaced with media containing 0.1, 1, 10, 100, 500 or 1000 μM, calculated from molarity of lopinavir (145 samples), of each lopinavir dispersion and incubated for a further 24 hours. The same procedure was followed for each individual excipient (23 samples) with concentrations range of 1 μM to 1M.
Prior to starting viability assays, all reagents were made fresh and in accordance to manufacturer's instructions and allowed to equilibrate to room temperature immediately before use. After 24 hours incubation, 96 well plates were removed from the incubator and the plate and its contents allowed too equilibrate to room temperature for approximately 30 minutes. After 30 minutes, 80 μl of media was aspirated from each individual well and 20 μl CellTiter-Glo® Reagent (Promega, UK) was added to the remaining media and cells. The contents were then mixed for 2 minutes on an orbital shaker to induce cell lysis. The plate was then further incubated at room temperature for 10 minutes to stabilise luminescent signal. Luminescence was then measured using a Tecan Genios plate reader (Tecan; Austria).

Data set [3] concerns HIVIIIB. As to the kind of experiment: Inhibition of cultured HIV-IIIB in MT4 cells (MTT assay). It is filed as cell-based, HIVIIIB in human T-cell line MT4. Conditions: Human immunodeficiency virus 1, 120 h, 70% loaded, 5 days, read-out: IC50 (Table 10, activity against cultured HIV virus). The procedure: HIVIIIB and the human T-cell line, MT4, were supplied by the National Institute for Biological Standards and Control (NIBSC), the Centre for AIDS Reagents (CFAR: Hertfordshire, Uk). MT4 cells were grown and routinely maintained in RPMI-1640 (Sigma; Dorest, Uk) supplemented with 10% fetal bovine serum (FBS; Bio-Whittaker, Berkshire, Uk) at 37° C. and 5% CO2 and sub-cultured every 3 days. Cell counts and viability was determined by Trypan Blue exclusion using a disposable plastic haemocytometer (Labtech International Ltd, UK). HIVIIIB was propagated by passage through MT4 cells in RPMI-1640 and 10% FBS for 12 days and a subsequent multiplicity of infection (MOI) was determined by MTT assay.
MT4 cells were dispensed into 50 ml falcon tubes and centrifuged at 2000 rpm and 4° C. for 5 minutes. The supernantant was aspirated and the resulting pellet resuspended to a cell density of 1×10^5/ml in RPMI 1640 supplemented with 10% FBS and 1 ml of viral isolate (M.O.I 0.001). After further centrifugation for 5 minutes at 2000 rpm, the MT4/HIVIIIB pellet was incubated at 37° C. and 5% CO2 for 2 hours. […]
Following incubation for 5 days of MT4/HIVIIIB with nano formulated LOPINAVIR at 37° C. and 5% CO2. […] Absorbance was read at 570 nm on a plate reader (Tecan Magellan, Austria).
In general terms: Formazan colour is commonly taken as a measure of viable cells.

The nature of data set [4]: ATP cell viability assay (CellTiter-Glo) cytotoxicity. Conditions: human, A-THP-1 (PMA-activated THP-1, macrophage like) cells, 70% lopinavir loaded, 24 hours incubation. In kind it is cell-based.
From the text: as §1, with “assay. […]” for “assay.”
HepG2, Caco-2, THP-1, CEM and A-THP-1 cells were separately seeded at a density of 2.5×10^4/100 μl in their appropriate media into each well of a 96 well plate (Nunclon™, Denmark) and incubated for 24 hours at 37° C. and 5% CO2. Media was then aspirated and replaced with media containing 0.1, 1, 10, 100, 500 or 1000 μM, calculated from molarity of lopinavir (145 samples), of each lopinavir dispersion and incubated for a further 24 hours. […]
A general note: ATP-based viability assays read luminescence as a measure of living cells.

As a reminder, the IC50 is the point on the concentration scale where inhibition reaches its midpoint. On to `Cc1cccc(C)c1OCC(=O)N[C@@H](Cc1ccccc1)[C@@H](O)C[C@H](Cc1ccccc1)NC(=O)[C@H](C(C)C)N1CCCNC1=O` [Aqueous solution, lopinavir], for which the IC50 worked out at 0.032 µM in data set [1] and 0.056 µM in data set [3]. In addition, the IC50 at 24 h in data set [2] (CEM (lymphocyte) cells) came to 100 µM; in data set [2] (Caco-2 (intestinal) cells), 52.5 µM; in data set [2] (HepG2 (hepatic) cells), 35.8 µM; in data set [2] (THP-1 (monocyte) cells) it was 28.3 µM; in data set [4] it was 84.3 µM.
